Data set [1] has as its target T1, recombinant human Adenosine A1 (FAST-001C) receptor (Homo sapiens, UniProt P30542).
T1 sequence (P30542 1-326): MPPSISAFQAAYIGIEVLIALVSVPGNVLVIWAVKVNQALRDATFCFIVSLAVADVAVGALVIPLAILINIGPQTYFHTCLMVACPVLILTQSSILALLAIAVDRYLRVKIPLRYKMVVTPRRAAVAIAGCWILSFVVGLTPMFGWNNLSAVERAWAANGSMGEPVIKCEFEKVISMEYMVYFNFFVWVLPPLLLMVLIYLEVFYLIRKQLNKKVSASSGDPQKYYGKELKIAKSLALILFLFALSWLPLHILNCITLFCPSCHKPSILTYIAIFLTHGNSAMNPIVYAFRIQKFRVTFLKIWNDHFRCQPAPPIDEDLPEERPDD
As to the kind of experiment: cAMP HTRF assay, Adenosine A1 receptor, antagonist mode. The arrangement: inhibition: dose or concentration left out as unconfirmed. The conditions noted are these: for inhibition: CHO-K1, read-out: % Inhibition Average at maximal concentration; for Hill Coefficient: antagonist mode dose-response fit. For orientation: In TR-FRET formats the signal depends on donor and acceptor labels being close together.

In data set [2] the target is recombinant human Adenosine A2A (FAST-002C) receptor (Homo sapiens, UniProt P29274). As to the kind of experiment: cAMP HTRF assay, Adenosine A2A receptor, antagonist mode. It is filed as cell-based.
The target in data set [3] is T2, recombinant human Adenosine A2B (FAST-003C) receptor (Homo sapiens, UniProt P29275).
T2 sequence (P29275 1-332): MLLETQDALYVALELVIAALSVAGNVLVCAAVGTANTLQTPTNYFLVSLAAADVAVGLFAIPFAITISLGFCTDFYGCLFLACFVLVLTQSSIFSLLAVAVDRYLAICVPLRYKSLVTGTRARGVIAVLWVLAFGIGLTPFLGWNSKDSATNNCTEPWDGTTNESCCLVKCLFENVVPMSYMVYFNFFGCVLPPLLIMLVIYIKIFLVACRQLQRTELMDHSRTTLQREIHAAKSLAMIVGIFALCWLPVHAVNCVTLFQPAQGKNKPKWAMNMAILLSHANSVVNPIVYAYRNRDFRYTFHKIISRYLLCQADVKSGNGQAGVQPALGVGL
In words: cAMP HTRF assay, Adenosine A2B receptor, antagonist mode. Also noted: inhibition: dose or concentration left out as unconfirmed. To be noted: for inhibition: HEK293, read-out: % Inhibition Average at maximal concentration; for Hill Coefficient: antagonist mode dose-response fit.

Data set [4] deals with T3, recombinant human Adenosine A3 (FAST-004C) receptor (Homo sapiens, UniProt P0DMS8).
T3 sequence (P0DMS8 1-318): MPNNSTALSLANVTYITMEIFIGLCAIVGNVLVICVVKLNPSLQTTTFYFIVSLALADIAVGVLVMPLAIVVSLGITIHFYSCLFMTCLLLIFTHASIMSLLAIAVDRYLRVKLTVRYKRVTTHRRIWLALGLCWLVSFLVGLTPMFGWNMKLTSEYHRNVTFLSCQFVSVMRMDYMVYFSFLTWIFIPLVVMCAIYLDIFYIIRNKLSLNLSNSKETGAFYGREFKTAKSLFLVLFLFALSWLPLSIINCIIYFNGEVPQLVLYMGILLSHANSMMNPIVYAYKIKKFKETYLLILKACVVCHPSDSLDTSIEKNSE
As to the kind of experiment: cAMP HTRF assay, Adenosine A3 receptor, antagonist mode. The class given is cell-based.

Data set [5] relates to MDA-MB-231 breast cancer cell lines. In words: cytotoxicity, control cells vs cells overexpressing CYP1A1. The class given is cell-based. An excerpt:
The dependence of each compound's cytotoxic effects upon CYP1A1 was also examined, via screening of MDA-MB-231 breast cancer cell lines for cytotoxic response. The CYP1A1-dependence of the cytotoxic response of to each tested compound was specifically determined by comparing the cytotoxicity of each compound administered to control cells with that of the compound administered to corresponding cells that overexpressed CYP1A1. […]

The subject of data set [6] is MDA-MB-468 and ZR51 breast cancer and JHH7 liver cancer cell lines.
Another data set relates to 578 cancer cell lines. As to the kind of experiment: PRISM multiplexed cellular viability screening. To be noted: relation to FOXA1 / FOXA1 target expression across cell lines. The class given is cell-based. The protocol:
The instant discovery was made using large-scale multiplex profiling of existing drugs against 578 cancer cell lines, employing a PRISM multiplexed cellular viability assay.
Parental cell lines were obtained from the Cancer Cell Line Encyclopedia (CCLE) project (1). PRISM cell line barcoding, pooling, and screening was performed as previously described with several improvements to the original method (2). First, the lentiviral vector was modified to encode the unique barcode identifier at the end of the puromycin resistance gene. This enables barcodes to be detected using a variant of the mRNA capture and Luminex detection method developed for the L1000 gene expression assay (3). Second, a set of ten inert barcodes were spiked-in to each well of each plate after cell lysis to control for variation in PCR amplification as detailed below.
Luminex technology produced .Ixb files containing data for each Luminex bead observed during detection. These .Ixb files were processed to compute Median Fluorescence Intensity (MFI) values, calculated as the median of the values obtained for all beads corresponding to a single PRISM barcode.
MFI values were log-transformed (log MFI) and used to perform basic quality control. To detect probable screening artifacts, log MFI values were centered to the median log MFI for each cell line on each plate in order to put the measurements from each cell line on the same scale. For each well on each plate, the median of these centered values was then standardized according to the global median and global MAD across all plate wells in the same position. Data from wells with a standardized score of greater than 5 or less than −5 were excluded from all further processing steps.
For each cell line on each plate, the distribution of MFI values observed for the DMSO-treated negative controls was compared to that of the positive controls using a robust form of the Strictly Standardized Mean Difference (SSMD*)′. Specifically, SSMD* was calculated as: […]
Data corresponding to SSMD values less than 2 were removed before calculating cell viability.
The data in the instant disclosure were produced according to two different screening protocols. In the PR500 protocol, ten inert barcodes were spiked-in to each well of each plate after cell lysis. For data produced using the PR500 protocol, normalized MFI (nMFI) values were computed by taking the ratio of each MFI value against the median of the inert barcodes within each well. […]
Cell viability was calculated as the ratio of nMFI to the median of the nMFI from the DMSO-treated negative controls for each cell line on each plate. […] The final viability values were calculated as the median of the batch-corrected cell viabilities from biological replicates for each cell line, compound and dose. […]

Data set [7] relates to MDA-MB-468 breast cancer cells. In words: Western immunoblot of treated cells over 24 hours. The class given is cell-based. To be noted: FIG. 18. The protocol: Adherent cells were washed once with cold 1×PBS (Corning #01018002) and lysed with RIPA buffer (Sigma #R0278) supplemented by protease and phosphatase inhibitors (Sigma). Protein content was quantified using the DC Protein Assay (BioRad #5000111). Samples were reduced with (loading buffer) and boiled at 95° C. before being resolved by SDS gel electrophoresis on 4-20% Tris/glycine gels (Invitrogen). Proteins were transferred using the IBlot2 (Thermo #IB21001) onto the iBlot™ 2 nitrocellulose Transfer Stacks (Thermo #IB23001). The membranes were then blocked in Odyssey Blocking Buffer (Li-COR #927-40000) for one hour, and then probed overnight with primary antibodies diluted in blocking buffer. The following day, membranes were washed 3×5 mins with 1×TBST and then probed with LiCOR Infrared secondary antibodies for 1 hour at room temperature. Membranes were washed an additional 3×5 mins in 1×TBST and then imaged using the LiCOR Imager. […]

Data set [8] concerns MDA-MB-468 breast cancer cells possessing AHR knockout. As to the kind of experiment: dose response in AHR knockout (AHR_sg3) cells. The class given is cell-based. The conditions noted are these: FIG. 17. An excerpt: Biological replicates were averaged and normalized to vehicle control. Dose curves were generated using Graphpad Prism.
Another data set has as its target T4, A3 receptors (Homo sapiens, UniProt P0DMS8).
T4 sequence (P0DMS8 1-318): T3 sequence (P0DMS8 1-318)
The conditions noted are these: previously characterized; cited from earlier work.

In data set [9] the test system is Twelve different breast cancer cell lines. In words: adenosine receptor antagonists and agonists dosed on twelve breast cancer cell lines. The class given is cell-based. The conditions noted are these: 32 adenosine receptor antagonists/agonists compared; FIG. 6B.
The mark [10] stands for this setting: HEK293; read-out: % Inhibition Average at maximal concentration.
The mark [11] stands for this setting: CHO-K1; read-out: % Inhibition Average at maximal concentration.
Setting [12] is: antagonist mode dose-response fit.
Setting [13] is: antagonist mode; HEK293; reference agonist NECA.
The mark [14] stands for this setting: HEK293, read-out: % Inhibition Average at maximal concentration.

Structures are written as SMILES. Like-named read-outs stand apart in the source and are kept apart here. Some results are limits rather than exact numbers.

recombinant human Adenosine A2A (FAST-002C) receptor, sequence (P29274 whole entry): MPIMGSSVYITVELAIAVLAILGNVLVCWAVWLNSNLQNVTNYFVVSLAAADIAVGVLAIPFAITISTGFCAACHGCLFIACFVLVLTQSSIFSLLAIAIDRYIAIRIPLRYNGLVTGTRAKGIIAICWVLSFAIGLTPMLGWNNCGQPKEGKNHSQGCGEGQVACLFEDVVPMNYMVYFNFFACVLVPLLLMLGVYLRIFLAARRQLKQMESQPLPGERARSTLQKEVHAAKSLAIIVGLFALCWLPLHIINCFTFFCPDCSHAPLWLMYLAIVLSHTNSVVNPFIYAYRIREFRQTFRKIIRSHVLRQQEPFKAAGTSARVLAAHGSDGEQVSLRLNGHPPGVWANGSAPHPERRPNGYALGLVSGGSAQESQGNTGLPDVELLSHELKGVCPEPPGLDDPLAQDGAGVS

Turning to `Clc1ccc2ncn3nc(-c4ccco4)nc3c2c1` [BRO-022, 9-chloro-2-(furan-2-yl)-[1,2,4]triazolo[1,5-c]quinazoline], in data set [1], the concentration for half-maximal inhibition (IC50) (in general, the concentration that gives 50% inhibition) was 0.17 µM; the inhibition is 101%; the “Hill Coefficient” value came to 1.06. The inhibition at 10 µM in data set [2] (setting [10]) came out at 60.7%. In [3], the IC50 is 2.5 µM, the inhibition was determined as 97.8% and the “Hill Coefficient” value was determined as 1.39. In data set [4] (setting [11]), the inhibition at 10 µM was 29.5%.

On to `C=C1Nc2ccccc2-c2nc(-c3ccco3)nn21`, for which the IC50 in data set [1] amounted to 0.493 µM; in data set [2] (setting [13]), 1.33 µM; in data set [3] it was 2.14 µM. For the same compound, the results for the inhibition in [1] and in data set [3] were 96.1% and 109%, respectively. For the same compound, the “Hill Coefficient” value in [1] came out at 1.17; in data set [2] (setting [12]) it was 1.72; in data set [3], 1.80. Also, in data set [5], the “CYP1A1-dependence of the cytotoxic response” value (“CYP1A1-dependence” for short) is on record as “CYP1A1-dependent cytotoxic”. Moreover, the “AHR-dependence of the cytotoxic response” value in data set [6] is on record as “dependence upon AHR”. Besides, the inhibition at 10 µM was 99.2% in data set [2] (setting [10]) and 31% in data set [4] (setting [11]).

As to `Cc1ccc(-c2nc3c4cc(Cl)ccc4nc(N)n3n2)o1` [BRO-013], the concentration for half-maximal inhibition (IC50) was 0.00794 µM in [1], 0.0272 µM in data set [2] (setting [13]), 0.116 µM in data set [3] and 0.73 µM in data set [4] (antagonist mode; CHO-K1; reference agonist IB-MECA). Also, the inhibition in data set [1] was 107%; in [3], 110%. Moreover, the “Hill Coefficient” value in data set [1] is given as 1.18; in data set [2] (setting [12]), 1.39; in data set [3], 1.76; in [4] (setting [12]), 1.04. Besides, in data set [5], the “CYP1A1-dependence” value is on record as “CYP1A1-dependent cytotoxic”. Besides, the “AHR-dependence of the cytotoxic response” value in [6] is “dependence upon AHR”. The inhibition at 10 µM in data set [2] (setting [14]) amounted to 112%; in data set [4] (setting [11]) it was 74.2%.

Turning to `Cc1cc(-c2nc3cc(F)ccc3s2)ccc1NC(=O)[C@@H](N)CCCCN.Cl.Cl` [Phortress], in the data set with 578 cancer cell lines, the “cell killing profile in PRISM” value was “more broadly cytotoxic”. In [7] (24 hour time course), the CYP1A1 expression entry is recorded as “induced CYP1A1 expression” and the FOXA1 levels entry is on record as “maintenance of FOXA1 levels”. The “DNA double stranded breaks (pH2A.X) and PARP cleavage” value in data set [7] (within 24 hours) was “induced DNA double stranded breaks”. For the same compound, the “rescue of killing by AHR knockout” value in data set [8] (10 μM) was “AHR knockout did not rescue cells from Phortress killing”. In [8] (AHR knockout cells), the “cytotoxicity at high doses” value was “non-specific cytotoxicity at high doses”.

As for `Nc1nc2c(cnn2CCc2ccccc2)c2nc(-c3ccco3)nn12` [SCH-58261], the “CYP1A1-dependence” value in [5] is “CYP1A1-dependent cytotoxic”. Further, the “cell killing profile in PRISM” value in the data set with 578 cancer cell lines was “cell killing profile specific for such FOXA1-dependent cancer cell lines”. Also, the “AHR-dependence of the cytotoxic response” value in data set [6] is listed as “dependence upon AHR”. In addition, the Ki – broadly, the dissociation constant of the complex between target and ligand, obtained from inhibition or displacement – on A3 receptors is above 10 µM. The “cytotoxicity to breast cancer cell lines” value in data set [9] is “cytotoxic”.

Consider `CN(C)c1nc2ccc(Cl)cc2c2nc(-c3ccco3)nn12` [BRO-020, 9-chloro-2-(furan-2-yl)-N,N-dimethyl-[1,2,4]triazolo[1,5-c]quinazolin-5-amine], for which, in data set [1], the IC50 worked out at 0.0724 µM, the inhibition turned out to be 81.1% and the “Hill Coefficient” value is reported as 0.83. In [2] (setting [14]), the inhibition at 10 µM was determined as 18.4%. Also, the inhibition in [3] came out at 9.09%. The inhibition at 10 µM in data set [4] (CHO-K1, read-out: % Inhibition Average at maximal concentration) worked out at 8.55%.

For `O=C(Cc1ccccc1)Nc1nc2ccc(Cl)cc2c2nc(-c3ccco3)nn12` [MRS-1220, reference compound], the “CYP1A1-dependence” value in data set [5] is recorded as “CYP1A1-dependent cytotoxic”. Further, the “cell killing profile in PRISM” value in the data set on 578 cancer cell lines was “cell killing profile specific for such FOXA1-dependent cancer cell lines”. Further, the “AHR-dependence of the cytotoxic response” value in [6] is “dependence upon AHR”. For the same compound, the “cytotoxicity to breast cancer cell lines” value in [9] is “cytotoxic”.

The record behind these values is patent publication US12358918B2, “Aryl hydrocarbon receptor (AHR) activator compounds as cancer therapeutics” (THE BROAD INSTITUTE, INC., priority 2018, dated 2025).
